Test results taken from PubChem BioAssay AID1963862 (Molecular Pharmacology Branch, DTP, NCI, 2024).

Test system: KRAS patient-derived spheroids with HUVEC/MSC, viability
Test: Anticancer human tumor 941728-121-R-J1-PDC patient-derived lung adenocarcinoma cell line growth inhibition [KRAS2]
Settings: for IC50: curve of first compound; for viability, T/C: stronger effect = lower value
Summary of the method: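 KRAS-mutant tumor cells were grown as spheroids with HUVEC endothelial cells and human MSCs as stroma. Targeted agents were tested alone and with KRAS pathway inhibitors. Doses started at or near clinical Cmax, or 10 microM, descending half-log.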

[1] = second compound 0.1 µM, first compound 0.0316 µM
[2] = second compound 0.1 µM, first compound 0.1 µM
[3] = second compound 0.1 µM, first compound 0.316 µM
[4] = second compound 0.1 µM, first compound 1 µM
[5] = second compound 0.1 µM, first compound 3.16 µM
[6] = second compound 0.1 µM, first compound 10 µM
[7] = second compound 0.316 µM, first compound 0.0316 µM
[8] = second compound 0.316 µM, first compound 0.1 µM
[9] = second compound 0.316 µM, first compound 0.316 µM
[10] = second compound 0.316 µM, first compound 1 µM
[11] = second compound 0.316 µM, first compound 3.16 µM
[12] = second compound 0.316 µM, first compound 10 µM
[13] = second compound 1 µM, first compound 0.0316 µM
[14] = second compound 1 µM, first compound 0.1 µM
[15] = second compound 1 µM, first compound 0.316 µM
[16] = second compound 1 µM, first compound 1 µM
[17] = second compound 1 µM, first compound 3.16 µM
[18] = second compound 1 µM, first compound 10 µM
[19] = second compound 3.16 µM, first compound 0.0316 µM
[20] = second compound 3.16 µM, first compound 0.1 µM
[21] = second compound 3.16 µM, first compound 0.316 µM
[22] = second compound 3.16 µM, first compound 1 µM
[23] = second compound 3.16 µM, first compound 3.16 µM
[24] = second compound 3.16 µM, first compound 10 µM
[25] = second compound 10 µM, first compound 0.0316 µM
[26] = second compound 10 µM, first compound 0.1 µM
[27] = second compound 10 µM, first compound 0.316 µM
[28] = second compound 10 µM, first compound 1 µM
[29] = second compound 10 µM, first compound 3.16 µM
[30] = second compound 10 µM, first compound 10 µM
[31] = second compound 0.1 µM, first compound 0.000316 µM
[32] = second compound 0.1 µM, first compound 0.001 µM
[33] = second compound 0.1 µM, first compound 0.00316 µM
[34] = second compound 0.1 µM, first compound 0.01 µM
[35] = second compound 0.316 µM, first compound 0.000316 µM
[36] = second compound 0.316 µM, first compound 0.001 µM
[37] = second compound 0.316 µM, first compound 0.00316 µM
[38] = second compound 0.316 µM, first compound 0.01 µM
[39] = second compound 1 µM, first compound 0.000316 µM
[40] = second compound 1 µM, first compound 0.001 µM
[41] = second compound 1 µM, first compound 0.00316 µM
[42] = second compound 1 µM, first compound 0.01 µM
[43] = second compound 3.16 µM, first compound 0.000316 µM
[44] = second compound 3.16 µM, first compound 0.001 µM
[45] = second compound 3.16 µM, first compound 0.00316 µM
[46] = second compound 3.16 µM, first compound 0.01 µM
[47] = second compound 10 µM, first compound 0.000316 µM
[48] = second compound 10 µM, first compound 0.001 µM
[49] = second compound 10 µM, first compound 0.00316 µM
[50] = second compound 10 µM, first compound 0.01 µM
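Note: spheroids exposed to agents for seven days before readout.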

Structure (SMILES): CC(C)NCC(C(=O)N1CCN(c2ncnc3c2C(C)CC3O)CC1)c1ccc(Cl)cc1 (stereo not drawn) + C=CC(=O)N1CCN(c2nc(=O)n(-c3c(C)ccnc3C(C)C)c3nc(-c4c(O)cccc4F)c(F)cc23)C(C)C1
- IC50 (second compound 0.1 µM): < 31.6 nM
- IC50 (second compound 0.316 µM): < 31.6 nM
- IC50 (second compound 1 µM): < 31.6 nM
- IC50 (second compound 3.16 µM): < 31.6 nM
- IC50 (second compound 10 µM): < 31.6 nM
- viability, T/C [1]: 19.7%
- viability, T/C [2]: 20.1%
- viability, T/C [3]: 19.6%
- viability, T/C [4]: 15.3%
- viability, T/C [5]: 9.91%
- viability, T/C [6]: 4.14%
- viability, T/C [7]: 24.7%
- viability, T/C [8]: 19.5%
- viability, T/C [9]: 20%
- viability, T/C [10]: 15.2%
- viability, T/C [11]: 9.83%
- viability, T/C [12]: 4.08%
- viability, T/C [13]: 22.6%
- viability, T/C [14]: 22.4%
- viability, T/C [15]: 13.9%
- viability, T/C [16]: 16%
- viability, T/C [17]: 12%
- viability, T/C [18]: 5.09%
- viability, T/C [19]: 24.1%
- viability, T/C [20]: 25.8%
- viability, T/C [21]: 20.3%
- viability, T/C [22]: 16%
- viability, T/C [23]: 10.6%
- viability, T/C [24]: 4.7%
- viability, T/C [25]: 25.9%
- viability, T/C [26]: 21.5%
- viability, T/C [27]: 18.6%
- viability, T/C [28]: 14.9%
- viability, T/C [29]: 6.4%
- viability, T/C [30]: 4.57%

Structure (SMILES): CC(=O)Nc1cccc(-n2c(=O)n(C3CC3)c(=O)c3c(Nc4ccc(I)cc4F)n(C)c(=O)c(C)c32)c1 + C=CC(=O)N1CCN(c2nc(=O)n(-c3c(C)ccnc3C(C)C)c3nc(-c4c(O)cccc4F)c(F)cc23)C(C)C1
- IC50 (second compound 0.1 µM): < 0.1 nM
- IC50 (second compound 0.316 µM): < 0.1 nM
- IC50 (second compound 1 µM): < 0.1 nM
- IC50 (second compound 3.16 µM): < 0.1 nM
- IC50 (second compound 10 µM): < 0.1 nM
- viability, T/C (second compound 0.1 µM, first compound 0.0001 µM): 27.9%
- viability, T/C [31]: 26.2%
- viability, T/C [32]: 20.3%
- viability, T/C [33]: 21.6%
- viability, T/C [34]: 19.6%
- viability, T/C [1]: 19.3%
- viability, T/C (second compound 0.316 µM, first compound 0.0001 µM): 26%
- viability, T/C [35]: 25.4%
- viability, T/C [36]: 24.1%
- viability, T/C [37]: 22.9%
- viability, T/C [38]: 20.2%
- viability, T/C [7]: 19.3%
- viability, T/C (second compound 1 µM, first compound 0.0001 µM): 27.5%
- viability, T/C [39]: 28.3%
- viability, T/C [40]: 24.2%
- viability, T/C [41]: 23.6%
- viability, T/C [42]: 22.3%
- viability, T/C [13]: 20.4%
- viability, T/C (second compound 3.16 µM, first compound 0.0001 µM): 27.3%
- viability, T/C [43]: 30.1%
- viability, T/C [44]: 26.9%
- viability, T/C [45]: 25.9%
- viability, T/C [46]: 28.6%
- viability, T/C [19]: 23.4%
- viability, T/C (second compound 10 µM, first compound 0.0001 µM): 35.8%
- viability, T/C [47]: 31.4%
- viability, T/C [48]: 36.3%
- viability, T/C [49]: 36.2%
- viability, T/C [50]: 29.6%
- viability, T/C [25]: 29%

Structure (SMILES): CC(C)n1nc(-c2ccc3oc(N)nc3c2)c2c(N)ncnc21 + COc1cc2nc(C)nc(NC(C)c3cc(N)cc(C(F)(F)F)c3)c2cc1OC1CCOC1
- IC50 (second compound 0.1 µM): < 0.316 nM
- IC50 (second compound 0.316 µM): < 0.316 nM
- IC50 (second compound 1 µM): < 0.316 nM
- IC50 (second compound 3.16 µM): < 0.316 nM
- IC50 (second compound 10 µM): < 0.316 nM
- viability, T/C [31]: 41.2%
- viability, T/C [32]: 47.9%
- viability, T/C [33]: 40.9%
- viability, T/C [34]: 33.3%
- viability, T/C [1]: 31%
- viability, T/C [2]: 28.3%
- viability, T/C [35]: 42.4%
- viability, T/C [36]: 50%
- viability, T/C [37]: 40.4%
- viability, T/C [38]: 24.3%
- viability, T/C [7]: 24.9%
- viability, T/C [8]: 16.7%
- viability, T/C [39]: 40.8%
- viability, T/C [40]: 37%
- viability, T/C [41]: 26.1%
- viability, T/C [42]: 19.8%
- viability, T/C [13]: 19.9%
- viability, T/C [14]: 12.8%
- viability, T/C [43]: 31.4%
- viability, T/C [44]: 31.9%
- viability, T/C [45]: 18.5%
- viability, T/C [46]: 15%
- viability, T/C [19]: 12.6%
- viability, T/C [20]: 4.73%
- viability, T/C [47]: 7.59%
- viability, T/C [48]: 6.39%
- viability, T/C [49]: 2.23%
- viability, T/C [50]: 2.22%
- viability, T/C [25]: 0.71%
- viability, T/C [26]: 4.65%

Structure (SMILES): O=C(c1cc(Cc2n[nH]c(=O)c3ccccc23)ccc1F)N1CCN(C(=O)C2CC2)CC1 + CC1OCC2(CCN(c3cnc(Sc4ccnc(N)c4Cl)c(N)n3)CC2)C1N
- IC50 (second compound 0.1 µM): < 31.6 nM
- IC50 (second compound 0.316 µM): < 31.6 nM
- IC50 (second compound 1 µM): 87.3 nM
- IC50 (second compound 3.16 µM): < 31.6 nM
- IC50 (second compound 10 µM): < 31.6 nM
- viability, T/C [1]: 50.3%
- viability, T/C [2]: 47.7%
- viability, T/C [3]: 48.3%
- viability, T/C [4]: 53.1%
- viability, T/C [5]: 62.1%
- viability, T/C [6]: 69.7%
- viability, T/C [7]: 41.9%
- viability, T/C [8]: 45.4%
- viability, T/C [9]: 52.8%
- viability, T/C [10]: 53.7%
- viability, T/C [11]: 57.8%
- viability, T/C [12]: 60.7%
- viability, T/C [13]: 65.1%
- viability, T/C [14]: 45%
- viability, T/C [15]: 45.7%
- viability, T/C [16]: 41.6%
- viability, T/C [17]: 49%
- viability, T/C [18]: 58.6%
- viability, T/C [19]: 31.9%
- viability, T/C [20]: 36.3%
- viability, T/C [21]: 35.3%
- viability, T/C [22]: 38.2%
- viability, T/C [23]: 41.3%
- viability, T/C [24]: 45.7%
- viability, T/C [25]: 26.1%
- viability, T/C [26]: 22.3%
- viability, T/C [27]: 29.6%
- viability, T/C [28]: 28.5%
- viability, T/C [29]: 35.1%
- viability, T/C [30]: 29.3%

Structure (SMILES): COc1cc(Nc2ncc3c(n2)-c2ccc(Cl)cc2C(c2c(F)cccc2OC)=NC3)ccc1C(=O)O
- viability, T/C (compound 1 µM): 63.3% [middle of 5 runs]
- viability, T/C (compound 3.16 µM): 55% [middle of 5 runs]
- viability, T/C (compound 10 µM): 50.9% [middle of 5 runs]
